Experimental data taken from patent publication US10322118B2, “Compounds and methods for inhibiting Cif virulence factor” (priority 2012, dated 2019).
Counter-ions that a name gives are not always drawn. Like-named read-outs stand apart in the source and are kept apart here.

Legend:
Cif [1] = biological target: T1, Cif (Pseudomonas aeruginosa (strain UCBPP-PA14), UniProt A0A0H2ZD27); assay: Radioactivity epoxide hydrolase assay with tritium-labeled cis-stilbene oxide (CSO); format: biochemical; set-up: concentration or dose not given beside the values; settings: radioactivity assay, CSO substrate, initial screen and retest (Table 8)
Cif [2] = biological target: T1, Cif; assay: Fluorescent-based Cif inhibitory assay (CMNGC)
From the text: Cyano (6-methoxynaphthalen-2-yl) methyl glycidyl carbonate (CMNGC) was used as a fluorescent reporter substrate.
Reported IC50 values are the average of triplicates with at least two data points above and at least two below the IC50.

Cif [3] = biological target: T1, Cif; assay: Primary high throughput screen with fluorogenic substrate CMNGC; format: biochemical; settings: primary screen; test compounds at 10 μM, 1 μM Cif, 25 μM CMNGC, 60 minutes;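 also: fluorescence of 200 µL reactions in 96-well plates read on a plate reader, inhibitor at tenfold molar excess over Cif enzyme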
Method: All high throughput screening assays were performed using 96-well plates, a 200 μL reaction volume, and a fluorescent plate reader. […] The fluorescent signal was measured after allowing the enzyme reaction to proceed for 60 minutes.
A library of 1600 FDA-approved compounds was screened for Cif inhibitory activity.
The screen was performed with only a 10-fold stoichiometric excess of inhibitor over Cif enzyme.

Cif [4] = biological target: T1, Cif; assay: Secondary screen (sextuplicate) with fluorogenic substrate CMNGC; format: biochemical; settings: for % Inhibition, Mean ± SD / % Inhibition, plate 1 / % Inhibition, plate 2 / % Inhibition, plate 3 / % Inhibition, plate 4 / % Inhibition, plate 5 / % Inhibition, plate 6: secondary screen, 10 μM; for % Inhibition, Mean ± SD: mean of six plates; for % Inhibition, plate 1: plate number 1; for % Inhibition, plate 2: plate number 2; for % Inhibition, plate 3: plate number 3; for % Inhibition, plate 4: plate number 4; for % Inhibition, plate 5: plate number 5; for % Inhibition, plate 6: plate number 6;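 as to all read-outs here: purified enzyme assay in 96-well plates, 200 µL volume, fluorescence recorded each minute across a 60 min reaction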
Method: All high throughput screening assays were performed using 96-well plates, a 200 μL reaction volume, and a fluorescent plate reader. […] The fluorescent signal was measured after allowing the enzyme reaction to proceed for 60 minutes. The secondary screen was performed using the same conditions as the primary screen, except that fluorescent readings were taken every minute for the 60-minute reaction.
Subsequently, the filtered primary hits were retested to validate the observed inhibitory effect.

[5] = Table 18 (biphenyl R series), CMNGC, average of triplicates
[6] = read-out: % Inhibition, Mean ± SD
[7] = read-out: % Inhibition, plate 1
[8] = read-out: % Inhibition, plate 2
[9] = read-out: % Inhibition, plate 3
[10] = read-out: % Inhibition, plate 4
[11] = read-out: % Inhibition, plate 5
[12] = read-out: % Inhibition, plate 6
[13] = Table 17 (R6-R9 series), CMNGC, average of triplicates

T1 sequence (A0A0H2ZD27 25-319 limits assumed): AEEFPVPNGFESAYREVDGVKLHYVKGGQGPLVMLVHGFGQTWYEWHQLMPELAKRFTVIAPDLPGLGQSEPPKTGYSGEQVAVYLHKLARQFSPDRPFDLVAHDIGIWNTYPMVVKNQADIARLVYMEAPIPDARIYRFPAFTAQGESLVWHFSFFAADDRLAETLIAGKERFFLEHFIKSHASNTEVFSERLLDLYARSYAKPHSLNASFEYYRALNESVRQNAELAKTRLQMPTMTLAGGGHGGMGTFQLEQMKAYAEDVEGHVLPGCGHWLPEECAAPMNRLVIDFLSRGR

SMILES	inhibition at 10 µM (Cif [3])	inhibition at 10 µM (Cif [4]; [6])	inhibition at 10 µM (Cif [4]; [7])	inhibition at 10 µM (Cif [4]; [8])	inhibition at 10 µM (Cif [4]; [9])	inhibition at 10 µM (Cif [4]; [10])	inhibition at 10 µM (Cif [4]; [11])	inhibition at 10 µM (Cif [4]; [12])	also measured
O=C(Nc1ccc(Cl)cc1)Nc1ccc(Cl)cc1 [Entry 17]	–	–	–	–	–	–	–	–	Inhibition (%) (Cif [1]): 7%
CCC(=O)Nc1cc(Cl)c(Oc2ccc(O)c(-c3ccc(NC(N)=O)cc3)c2)c(Cl)c1 [Compound 8i]	–	–	–	–	–	–	–	–	IC50 (Cif [2]; [5]): 290 nM
CCN(CC)CCOc1ccc2c(c1)C(=O)c1cc(OCCN(CC)CC)ccc1-2 [Tilorone]	36%	6 ± 4%	4%	5%	5%	11%	10%	0%	–
S=c1nc[nH]c2nc[nH]c12 [Mercaptopurine]	32%	13 ± 5%	5%	15%	19%	15%	15%	11%	–
Cc1cccc(Nc2ccccc2C(=O)O)c1C [Mefenamic acid]	48%	16 ± 8%	5%	24%	17%	22%	20%	6%	–
O=C1CC2(CCCC2)CC(=O)N1CCCCN1CCN(c2ncccn2)CC1 [Buspirone hydrochloride]	33%	-3 ± 4%	0%	-3%	0%	-1%	-2%	-11%	–
CCC(=O)Nc1cc(Cl)c(Oc2ccc(O)c(-c3cccc(C#N)c3)c2)c(Cl)c1 [Compound 8f]	–	–	–	–	–	–	–	–	IC50 (Cif [2]; [5]): 580 nM
CC(C(=O)O)c1cccc(C(=O)c2ccccc2)c1 (stereo not shown) [Ketoprofen]	34%	9 ± 5%	2%	14%	9%	8%	15%	4%	–
Nc1nc(Cl)nc2c1ncn2[C@@H]1O[C@H](CO)[C@@H](O)[C@@H]1F [Clofarabine]	43%	12 ± 5%	7%	8%	7%	13%	20%	16%	–
Cc1c(Nc2ncccc2C(=O)O)cccc1C(F)(F)F [Flunixin meglumine]	32%	14 ± 5%	13%	15%	14%	18%	19%	4%	–
CCOC(=O)CC(=O)Nc1cc(Br)c(Oc2ccc(OC)c(C(C)C)c2)c(Br)c1 [Compound 1h]	–	–	–	–	–	–	–	–	Cif inhibitory activity at 50 μM (Cif [2]): fail to show inhibitory activity; IC50 (Cif [2]; [13]): > 50000 nM
Cc1nccnc1N1CCCCC1 [Modaline sulfate]	34%	12 ± 3%	10%	7%	12%	12%	13%	17%	–
CCC(=O)Nc1cc(Cl)c(Oc2ccc(O)c(-c3cccc(C(N)=O)c3)c2)c(Cl)c1 [Compound 8d]	–	–	–	–	–	–	–	–	IC50 (Cif [2]; [5]): 460 nM
NC(Cc1cc(I)c(Oc2cc(I)c(O)c(I)c2)c(I)c1)C(=O)O (stereo not shown) [Entry 6]	–	–	–	–	–	–	–	–	IC50 (Cif [2]): > 100000 nM
CCOC(=O)CC(=O)Nc1cc(Cl)c(Oc2ccc(O)cc2)c(Cl)c1 [Compound 1k]	–	–	–	–	–	–	–	–	Cif inhibitory activity at 50 μM (Cif [2]): showed no inhibition; IC50 (Cif [2]; [13]): > 50000 nM
CC(O)CN1CCN(CC(=O)[O-])CCN(CC(=O)[O-])CCN(CC(=O)[O-])CC1.[Gd+3] (stereo not shown) [Gadoteridol]	–	–	–	–	–	–	–	–	% Inhibition (Cif [3]): 34%; % Inhibition, Mean ± SD (Cif [4]): 11 ± 5%; % Inhibition, plate 1 (Cif [4]): 7%; % Inhibition, plate 2 (Cif [4]): 3%; % Inhibition, plate 3 (Cif [4]): 10%; % Inhibition, plate 4 (Cif [4]): 13%; % Inhibition, plate 5 (Cif [4]): 16%; % Inhibition, plate 6 (Cif [4]): 15%
CC(=O)[C@@]12O[C@](C)(c3ccccc3)O[C@@H]1C[C@H]1[C@@H]3CCC4=CC(=O)CC[C@]4(C)[C@H]3CC[C@@]12C [Algestone acetophenide]	–	–	–	–	–	–	–	–	% Inhibition (Cif [3]): 38%; % Inhibition, Mean ± SD (Cif [4]): −3 ± 5%; % Inhibition, plate 1 (Cif [4]): −5%; % Inhibition, plate 2 (Cif [4]): −2%; % Inhibition, plate 3 (Cif [4]): 0%; % Inhibition, plate 4 (Cif [4]): −2%; % Inhibition, plate 5 (Cif [4]): 3%; % Inhibition, plate 6 (Cif [4]): −10%
C#Cc1cc(Oc2c(Cl)cc(NC(=O)CC(=O)OCC)cc2Cl)ccc1O [Compound 1p]	–	–	–	–	–	–	–	–	IC50 (Cif [2]; [13]): 2900 nM
CCOC(=O)CC(=O)Nc1cc(Cl)c(Oc2ccc(O)c(I)c2)c(Cl)c1 [Compound 1m]	–	–	–	–	–	–	–	–	IC50 (Cif [2]; [13]): 3800 nM
COC(=O)/C=C/C(=O)OC [Dimethyl fumarate]	36%	5 ± 4%	3%	-2%	8%	7%	9%	6%	–
CCCCCCCCCCCCCCCC[N+](C)(C)C.[Br-] [Cetrimonium bromide]	–	–	–	–	–	–	–	–	% Inhibition (Cif [3]): 44%; % Inhibition, Mean ± SD (Cif [4]): 2 ± 4%; % Inhibition, plate 1 (Cif [4]): 1%; % Inhibition, plate 2 (Cif [4]): −1%; % Inhibition, plate 3 (Cif [4]): −4%; % Inhibition, plate 4 (Cif [4]): 3%; % Inhibition, plate 5 (Cif [4]): 8%; % Inhibition, plate 6 (Cif [4]): 2%
CO[C@@]1(NC(=O)Cc2cccs2)C(=O)N2C(C(=O)O)=C(COC(N)=O)CS[C@@H]21 [Cefoxitin sodium]	32%	10 ± 8%	-3%	16%	5%	9%	19%	14%	–
